Values quoted from earlier work in patent US20250171403A1 (Synthon B.V., priority 2022, published 2025).

Conditions: qualitative, background statement

With `COc1cc2nccc(Oc3ccc(NC(=O)C4(C(=O)Nc5ccc(F)cc5)CC4)cc3)c2cc1OC` [Cabozantinib, N-[4-(6,7-Dimethoxyquinolin-4-yloxy)phenyl]-N′-(4-fluorophenyl)cyclopropane-1,1-dicarboxamide] as the compound, how does the “solubility (prior art, general statement)” value read?
The value was “poorly soluble”.
